Reference: the supplement of paper PMC13380429

Experiments:
Conditions in all cases: 72 h
[1] = system: Caco-2; assay: cell viability relative to DMSO; higher = less toxic
[2] = system: Calu-3; assay: as above
[3] = system: HepG2; assay: as above
[4] = system: U2OS; assay: as above
[5] = system: Vero E6; assay: as above
[6] = system: Caco-2; assay: relative viability EC50 (midpoint between 100% and the lowest measured viability); higher = less toxic
[7] = system: Calu-3; assay: as above
[8] = system: HepG2; assay: as above
[9] = system: U2OS; assay: as above
[10] = system: Vero E6; assay: as above
[11] = system: Caco-2; assay: drug sensitivity score (DSS) for viability; higher = more toxic; extreme values may be limits of the assay
[12] = system: Calu-3; assay: as above
[13] = system: HepG2; assay: as above
[14] = system: U2OS; assay: as above
[15] = system: Vero E6; assay: as above

Row | SMILES | cell viability ([1]; 1 nM) [%] | cell viability ([1]; 10 nM) [%] | cell viability ([1]; 100 nM) [%] | cell viability ([1]; 1000 nM) [%] | cell viability ([1]; 10000 nM) [%] | cell viability ([2]; 1 nM) [%] | cell viability ([2]; 10 nM) [%] | cell viability ([2]; 100 nM) [%] | cell viability ([2]; 1000 nM) [%] | cell viability ([2]; 10000 nM) [%] | cell viability ([3]; 1 nM) [%] | cell viability ([3]; 10 nM) [%] | cell viability ([3]; 100 nM) [%] | cell viability ([3]; 1000 nM) [%] | cell viability ([3]; 10000 nM) [%] | cell viability ([4]; 1 nM) [%] | cell viability ([4]; 10 nM) [%] | cell viability ([4]; 100 nM) [%] | cell viability ([4]; 1000 nM) [%] | cell viability ([4]; 10000 nM) [%] | cell viability ([5]; 1 nM) [%] | cell viability ([5]; 10 nM) [%] | cell viability ([5]; 100 nM) [%] | cell viability ([5]; 1000 nM) [%] | cell viability ([5]; 10000 nM) [%] | relative viability EC50 [6] [µM] | relative viability EC50 [7] [µM] | relative viability EC50 [8] [µM] | relative viability EC50 [9] [µM] | relative viability EC50 [10] [µM] | drug sensitivity score [11] | drug sensitivity score [12] | drug sensitivity score [13] | drug sensitivity score [14] | drug sensitivity score [15]
1 | Cc1cc(N2CCOCC2)cc2[nH]c(-c3c(NC[C@@H](O)c4cccc(Cl)c4)cc[nH]c3=O)nc12 | 102 | 93.9 | 99.4 | 76.8 | 43 | 89.8 | 102 | 96.7 | 81.9 | 38.3 | 101 | 101 | 80.2 | 58.8 | 31.2 | 97.2 | 97.2 | 95.9 | 78 | 22.5 | 89.3 | 101 | 90.6 | 90.2 | 49.9 | 1.16 | 1.44 | 0.45 | 1.45 | 1.75 | 6.2 | 6 | 10.1 | 7.6 | 4.3
2 | Oc1ccc2c3c1O[C@H]1c4[nH]c5ccccc5c4C[C@@]4(O)[C@@H](C2)N(CC2CC2)CC[C@]314 [naltrindole] | 102 | 94.6 | 98.1 | 96.5 | 106 | 98.5 | 98.5 | 103 | 101 | 83.9 | 103 | 97.7 | 101 | 106 | 91.7 | 98.7 | 100 | 102 | 111 | 97.9 | 95.9 | 102 | 105 | 95.4 | 92.1 | > 10 | > 10 | > 10 | > 10 | > 10 | 0 | 0.3 | 0 | 0 | 0
3 | O=C1CC[C@@H](C(=O)N2CSC[C@H]2C(=O)O)N1 [pidotimod] | 102 | 91.6 | 106 | 102 | 92.7 | 97.4 | 104 | 97.3 | 96 | 102 | 98.4 | 101 | 101 | 105 | 106 | 93.9 | 93.3 | 101 | 99.9 | 106 | 97.8 | 101 | 94.8 | 101 | 107 | > 10 | > 10 | > 10 | > 10 | > 10 | 0 | 0 | 0 | 0 | 0
4 | Cc1cc(=O)n(-c2ccccc2)[nH]1 [N-demethylantipyrine] | 99.3 | 97.2 | 102 | 84.8 | 99.8 | 102 | 107 | 98.5 | 97 | 106 | 94.1 | 106 | 95.3 | 107 | 93.8 | 101 | 99.7 | 98.7 | 102 | 98.5 | 104 | 101 | 94.2 | 95.2 | 102 | > 10 | > 10 | > 10 | > 10 | > 10 | 0 | 0 | 0 | 0 | 0
5 | CC(C)NCC(O)COc1ccc(COCCOC(C)C)cc1 (stereo not given) [bisoprolol] | 91.3 | 95.8 | 103 | 100 | 99.2 | 95.5 | 103 | 108 | 97.8 | 108 | 104 | 98.9 | 91.2 | 103 | 90.6 | 93.6 | 94 | 101 | 95 | 103 | 92 | 98.3 | 93.3 | 104 | 107 | > 10 | > 10 | > 10 | > 10 | > 10 | 0 | 0 | 0 | 0 | 0
6 | O=C(O)Cc1ccc(OCCNC[C@H](O)c2ccccc2)cc1 [ZD-2079] | 92.1 | 102 | 104 | 99.3 | 95 | 98.5 | 92.7 | 105 | 98 | 96.2 | 109 | 110 | 107 | 101 | 94.3 | 102 | 94.8 | 107 | 98.5 | 104 | 104 | 100 | 98.8 | 102 | 100 | > 10 | > 10 | > 10 | > 10 | > 10 | 0 | 0 | 0 | 0 | 0
7 | Clc1cccc(Nc2nnc(-c3ccccc3)c3ccccc23)c1 [MY-5445] | 93 | 104 | 94.7 | 104 | 97.9 | 95.2 | 97.7 | 88.2 | 104 | 104 | 104 | 98.4 | 107 | 104 | 103 | 95 | 98.2 | 95.6 | 99.8 | 101 | 96.6 | 96.7 | 95.8 | 92.1 | 106 | > 10 | > 10 | > 10 | > 10 | > 10 | 0 | 0 | 0 | 0 | 0
8 | C[C@]12CCC(=O)C[C@@H]1CC[C@@H]1[C@@H]2CC[C@]2(C)C=CC[C@@H]12 [androstenone] | 86.6 | 104 | 93.9 | 97.2 | 102 | 90.7 | 91.1 | 99.8 | 105 | 80.2 | 100 | 99.4 | 92.4 | 89.8 | 100 | 94.5 | 99.3 | 92.6 | 99 | 101 | 96.8 | 97.1 | 97.4 | 93.4 | 102 | > 10 | > 10 | > 10 | > 10 | > 10 | 0 | 0.1 | 0 | 0 | 0
9 | CN(C)CCc1c[nH]c2ccc(Cn3cncn3)cc12 [rizatriptan] | 91.9 | 102 | 101 | 97.2 | 87.7 | 96.5 | 107 | 99.8 | 97.3 | 99.1 | 99 | 93.5 | 102 | 92.8 | 104 | 99 | 106 | 96.5 | 98.6 | 96.5 | 101 | 94.8 | 98.7 | 99.3 | 98.8 | > 10 | > 10 | > 10 | > 10 | > 10 | 0.2 | 0 | 0 | 0 | 0
10 | N#Cc1cccc(-c2c[nH]c3ncnc(N4CCOCC4)c23)c1 | 104 | 98.2 | 105 | 107 | 118 | 99 | 104 | 103 | 99.6 | 115 | 89.8 | 99.8 | 102 | 105 | 106 | 106 | 99.2 | 102 | 98.5 | 105 | 98.1 | 96 | 98.9 | 97.7 | 95.9 | > 10 | > 10 | > 10 | > 10 | > 10 | 0 | 0 | 0 | 0 | 0
11 | On1ncc(C2CCNCC2)c1-c1cccc(-c2ccccc2)c1 [PHP-501] | 100 | 97.3 | 93 | 102 | 94.6 | 106 | 102 | 91.1 | 97.1 | 107 | 108 | 99.6 | 105 | 97.4 | 100 | 95.5 | 102 | 98.1 | 109 | 106 | 97.7 | 92.1 | 92 | 89.9 | 111 | > 10 | > 10 | > 10 | > 10 | > 10 | 0 | 0 | 0 | 0 | 0
12 | Nc1ccn([C@@H]2CS[C@H](CO)O2)c(=O)n1 [lamivudine] | 83 | 100 | 89.3 | 88.7 | 84.5 | 107 | 89.6 | 89.4 | 96.9 | 97.6 | 93.9 | 93.4 | 98.8 | 99.1 | 106 | 96.9 | 102 | 97.7 | 102 | 97.1 | 102 | 105 | 97.4 | 85.8 | 99.2 | > 10 | > 10 | > 10 | > 10 | > 10 | 0.7 | 0 | 0 | 0 | 0
13 | O=C([O-])c1ccccn1.O=C([O-])c1ccccn1.O=C([O-])c1ccccn1.[Cr+3] [chromium-picolinate] | 105 | 92 | 104 | 95.5 | 103 | 111 | 102 | 113 | 103 | 97.6 | 93 | 95.3 | 103 | 98.7 | 90.1 | 104 | 97.7 | 98.6 | 98.9 | 102 | 102 | 103 | 105 | 99.2 | 101 | > 10 | > 10 | > 10 | > 10 | > 10 | 0 | 0 | 0 | 0 | 0
14 | O=[N+]([O-])c1cccc2cn[nH]c12 [7-nitroindazole] | 100 | 94.4 | 97.1 | 106 | 97.8 | 102 | 101 | 99.4 | 97.6 | 93.4 | 102 | 96.3 | 88.2 | 99.2 | 98.1 | 99.7 | 102 | 99.8 | 104 | 97.9 | 103 | 96.5 | 99.6 | 98.7 | 98.7 | > 10 | > 10 | > 10 | > 10 | > 10 | 0 | 0 | 0 | 0 | 0
